In US10184933B2, “Compositions, systems and methods for gene expression noise drug screening and uses thereof” (priority 2013, dated 2019):
Entries after “also recorded” stand apart in the source; their conditions may differ. Structures can show the parent of a compound that is named as a salt. Where two headings read alike, the source gives them in different places.

Key:
HIV-1 LTR promoter [1] = type: cell-based; conditions: FIG. 6D
HIV-1 LTR promoter [2] = conditions: shotgun imaging approach, Boehm et al., 2013; cited from earlier work
HIV-1 LTR promoter [3] = assay: Two-reporter system (LTR-d2GFP and LTR-mCherry) noise measurement; type: cell-based; conditions: FIG. 6E
Procedure: Without being bound by theory, a destabilized reporter is required to observe transcriptional noise with shorter time scales. GFP noise magnitude (quantified by the variance over the mean fluorescence squared, CV^2) and mean fluorescence were measured by high-throughput flow cytometry 24 hours post 10 uM drug exposure. To control for extrinsic variability in gene expression due to cell volume and state a conservative gating on the population forward versus side scatter was applied (See General Methods). A second LTR driving a long-lived mCherry reporter was integrated and screened alongside the destabilized reporter drug target to control for fluctuations in global resources and post-transcriptional noise sources (FIG. 6E).
To distinguish between compounds that primarily target transcription versus post-transcriptional processes and global resources (extrinsic noise) a second reporter of the LTR promoter driving a stable mCherry gene was included in the same targeted cell population used in the drug noise screen (FIG. 6E). The stable reporter averages out and is unaffected by fluctuations due to episodic transcription. Theory predicts that the destabilized d2GFP reporter can detect transcriptional bursting noise contributions (γp>>kon,koff, where γp is the fluorescent reporter degradation rate) while the two reporters together will move their noise magnitudes to changes in non-transcriptional noise sources. Filtering out non-transcriptional noise signatures of VM hits increases the probability for synergistic reactivation of latency. Noise from the two reporters was compared using the same processing as the LTR-d2GFP. The LTR-mCherry ΔCV^2 of the 85 selected VMs primarily land along the ΔCV^2 d2GFP axis. […]. Of these 25 compounds 15 were identified as modifiers of cell cycle, ATP, inflammation, post-translational modifications, and translation.
In addition to the GFP reporter in the LTR-d2GFP cell line, an LTR driving a long half-life mCherry reporter was present in the cell line. […] To remove compounds that altered CV^2 post transcriptionally, compounds that affected the CV^2 long-lived red reporter while conserving its mean mCherry level were removed. This method continues development of the original and decade-old 2-reporter system for intrinsic versus extrinsic noise measurements in bacteria (Elowitz et al., (2002) Science 297:1183-1186).

[4] = system: latent HIV-1 in JLat 8.6 cells; type: cell-based
[5] = >500 nM for more than 2 days; Williams et al., 2004; cited from earlier work
latent HIV-1 = conditions: Bocklandt et al., 2003; cited from earlier work
[6] = system: latent HIV-1 in JLat 9.2 cells; assay: HIV-1 latency reactivation in JLat 9.2 cells; type: cell-based
Procedure: Jurkat cells were cultured in RPMI 1640 supplemented with 10% FBS and 1% penicillin-streptomycin. JLat 6.3, JLat 8.6, and JLat 9.2 cells are Jurkat T cell lines containing integrated but transcriptionally latent HIV-1 proviruses.
Drug treatments were performed for 24 hours at 10 uM final concentration in 96-well plates. Compounds were automatically added into 200 μl cultures at the final concentration of 0.1% DMSO. […] Plates were kept in the incubator until measurement and each well was automatically mixed before samples were analyzed. 5×10^4 of all live cells that passed a specific forward scatter (FSC)—side scatter (SSC) gate were collected from each well for noise magnitude measurements from which a conservative gating was applied for about 3×10^3 cells of similar FSC vs SSC to reduce extrinsic noise contributions primarily due to differences in cell volume and state. Each 96-well plate included a column of untreated control cells, cells treated with TNFα (positive control) and one well of non-′ fluorescent naïve Jurkat cells. For HIV-1 reactivation experiments 1×10^4 live cells were collected.

[7] = system: latent HIV-1 in JLat 15.4; assay: HIV-1 latency reactivation in JLat 15.4 cells; type: cell-based
[8] = system: latent HIV-1 in primary T-cells; type: cell-based; conditions: primary T-cell model
Procedure: FIG. 18A schematically depicts a primary T-cell model of HIV-1 latency 48 h after reactivation with PMA or a subset of noise enhancers (% reactivation percentage is calculated relative to maximal reactivation potential). […] The horizontal line represents the mean calculated Bliss Independence Score (C. I. Bliss, Ann. Appl. Biol. 26:585-615 (1939)), a measure for strict additivity for all of the compounds. FIG. 18B schematically depicts stochastic simulations of noise suppression, which reduces noise without altering the mean expression level but limits reactivation induced by an activator. […] Details are described, e.g., in Example 10.

[9] = known transcriptional modulators applied to the isoclone target
[10] = known transcriptional activators

Cc1sc2c(c1C)C(c1ccc(Cl)cc1)=N[C@@H](CC(=O)OC(C)(C)C)c1nnc(C)n1-2 [JQ1, t-Butyl-2-((6S)-4-(4-chlorophenyl)-2,3,9-trimethyl-6H-thieno[3,2-f][1,2,4]triazolo[4,3-a][1,4]diazepin-6-yl)acetate]
variability in gene expression (noise magnitude) (HIV-1 LTR promoter [1]; [9]): increase variability in gene expression; also recorded: variability enhancers | noise magnitude across integration sites (HIV-1 LTR promoter [2]): global increase in noise magnitude

CC(=O)O[C@@]12C[C@@H](C)[C@@]3(O)[C@@H](C=C(CO)C[C@]4(O)C(=O)C(C)=C[C@@H]34)[C@@H]1C2(C)C [Prostratin, 12-deoxyphorbol 13-acetate]
burst frequency (HIV-1 LTR promoter [1]; activator drugs): increase burst frequency | mean expression level (HIV-1 LTR promoter [1]; [9]): increase mean expression level | variability in gene expression (noise magnitude) (HIV-1 LTR promoter [1]; [9]): decrease noise magnitude | variability in gene expression (noise magnitude) (HIV-1 LTR promoter [1]; known transcriptional modulators applied to the isoclone target, listed as prostratin): decrease variability in gene expression | d2GFP noise (HIV-1 LTR promoter [3]; [10]): decrease both mCherry and d2GFP noise | mCherry noise (HIV-1 LTR promoter [3]; [10]): decrease both mCherry and d2GFP noise | transcriptional burst frequency (decreasing noise in mCherry) (HIV-1 LTR promoter [3]; transcriptional modifiers): increase transcriptional burst frequency | reactivation by activator alone ([4]; Prostratin alone, 48 hr): 6% | toxicity [5]: substantial growth arrest and cell death

CC1=C[C@H]2[C@@]3(O)[C@H](C)C[C@]4(OC(=O)Cc5ccccc5)C([C@@H]3C=C(CO)C[C@]2(O)C1=O)C4(C)C (stereo partly shown) [DPP, 12-deoxyphorbol 13-phenylacetate]
potency relative to prostratin (latent HIV-1): 20-40 fold

COC(=O)C1=C(C)NC(C)=C(C(=O)OCCN2CCN(C(c3ccccc3)c3ccccc3)CC2)C1c1cccc([N+](=O)[O-])c1 (stereo not shown) [VS1, manidipine hydrochloride]
decrease of TNF-induced reactivation ([4]; JLat 8.6): ~40% | decrease of TNFα-mediated reactivation [6]: about 40% | decrease of TNF-induced reactivation [7]: ~40% | decrease of Prostratin-induced reactivation [8]: ~50%
